Here are results for one compound from PMC11724075, “Small-molecule-induced ERBB4 activation to treat heart failure” (Nature Communications, 2025).

The test concerns the target T1, ERBB1/ERBB1 (Homo sapiens, UniProt P00533).
T1 construct: host or cells: U2OS (osteosarcoma cells), PathHunter engineered line
Description: PathHunter U2OS ERBB1/ERBB1 dimerization assay. The format is cell-based. To be noted: for ERBB1/ERBB1 dimerization signal: relative to signal with EGF, single biological replicates. How it is done: PathHunter U2OS ERBB4/ERBB4 (osteosarcoma cells; Eurofins, 93-0961C3), U2OS ERBB2/ERBB4 (osteosarcoma cells; Eurofins, 493-0960C3), ERBB2/ERBB3 (osteosarcoma cells; Eurofins, 93-1042C3) and ERBB1/ERBB1 (osteosarcoma cells; Eurofins, 93-0989C3) dimerization cell lines were cultured according to the manufacturer’s instructions. Briefly, cells were cultured in Cell Culture Reagent 103 (Eurofins, 92-3103 G) supplemented with 250 µg/mL Hygromycin B (Eurofins, 92-0029) and 500 µg/mL G418 (Eurofins, 92-0030), and were maintained at 37 °C in humidified atmosphere of 5% CO2. HCFs (Innoprot, P10454) were cultured in fibroblast medium (Innoprot, P60108) supplemented with 10% (v/v) fetal bovine serum (FBS, Innoprot), 10% (v/v) fibroblast growth supplement (Innoprot), and 1% (v/v) penicillin/streptomycin solution (Innoprot). iAMs[33] (kindly provided by LUMC) were cultured in Advanced DMEM F-12 (Thermo Fisher Scientific, 12634028) supplemented with 2% (v/v) heat-inactivated FBS (Thermo Fisher Scientific, 10270106), 1% (v/v) penicillin/streptomycin (10,000 units/mL and 10 mg/mL respectively, Thermo Fisher Scientific, 15140122), 1× GlutaMAX (Thermo Fisher Scientific, 35050061), and 100 ng/mL doxycycline (Tocris, 4090) for proliferation. To induce differentiation, iAMs were transferred to medium without doxycycline.
U2OS ERBB4/ERBB4 dimerization cells were seeded at a density of 5 × 10^4 cells/well in 100 µL Cell Plating 0 Reagent, in white 96-well plates (PerkinElmer, 6005680) and incubated for 24 h at 37 °C, 5% CO2. […] Next, 110 µL PathHunter Flash Detection Reagent was added to each well and incubated at RT for 1 h after which the luminescence signal was measured using the Luminoskan Ascent (Thermo Fisher Scientific). […] The same experimental set-up was used for the U2OS ERBB2/ERBB4, U2OS ERBB2/ERBB3 and U2OS ERBB1/ERBB1 dimerization cell lines.

Several values for one entry are separate records, joined by “and”; a condition that tells them apart may be missing. Equal entries are not always repeated.

T1 sequence (P00533 25-1210): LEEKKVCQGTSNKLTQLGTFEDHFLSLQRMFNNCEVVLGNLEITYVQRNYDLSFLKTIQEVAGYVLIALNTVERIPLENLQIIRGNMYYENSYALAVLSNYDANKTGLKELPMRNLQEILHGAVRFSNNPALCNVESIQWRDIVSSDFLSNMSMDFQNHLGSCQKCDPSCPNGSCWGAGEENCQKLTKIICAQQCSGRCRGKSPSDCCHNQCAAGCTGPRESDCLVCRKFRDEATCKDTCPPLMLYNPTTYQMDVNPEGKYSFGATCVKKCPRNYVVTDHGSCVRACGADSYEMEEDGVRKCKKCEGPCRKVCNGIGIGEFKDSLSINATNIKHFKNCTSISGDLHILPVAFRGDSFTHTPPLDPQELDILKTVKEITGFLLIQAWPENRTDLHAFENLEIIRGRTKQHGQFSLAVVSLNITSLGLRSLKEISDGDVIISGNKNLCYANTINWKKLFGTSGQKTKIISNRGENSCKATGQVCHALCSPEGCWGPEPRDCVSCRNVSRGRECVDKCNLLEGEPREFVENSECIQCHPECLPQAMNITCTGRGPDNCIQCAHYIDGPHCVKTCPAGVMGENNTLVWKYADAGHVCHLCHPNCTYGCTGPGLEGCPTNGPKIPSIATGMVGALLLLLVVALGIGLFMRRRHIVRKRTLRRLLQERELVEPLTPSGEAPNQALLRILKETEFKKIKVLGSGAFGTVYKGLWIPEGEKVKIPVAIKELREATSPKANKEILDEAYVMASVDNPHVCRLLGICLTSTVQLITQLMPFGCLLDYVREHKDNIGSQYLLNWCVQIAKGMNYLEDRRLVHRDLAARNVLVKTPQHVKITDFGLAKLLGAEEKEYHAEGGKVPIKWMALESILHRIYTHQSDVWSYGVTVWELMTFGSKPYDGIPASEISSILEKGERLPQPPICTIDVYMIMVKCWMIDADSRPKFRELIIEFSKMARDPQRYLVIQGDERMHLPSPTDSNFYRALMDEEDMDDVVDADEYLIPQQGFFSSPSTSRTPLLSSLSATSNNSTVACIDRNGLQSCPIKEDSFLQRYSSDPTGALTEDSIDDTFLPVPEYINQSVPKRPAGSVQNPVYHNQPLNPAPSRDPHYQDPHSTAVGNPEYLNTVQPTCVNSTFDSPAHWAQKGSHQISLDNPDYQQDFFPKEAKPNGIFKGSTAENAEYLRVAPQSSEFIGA
T1 sequence (P00533 25-1210): as above

Usually EC50 stands for the midpoint of the concentration-response curve. A low value points to an effect from little substance. As to `O=C(NC1CC1)C(Sc1nc2ccccc2c(=O)n1C1CCCC1)c1ccccc1` (stereo not drawn) [EF-1], the EC50 was greater than 32 µM. Also, the ERBB1/ERBB1 dimerization signal (3.125e-8 M) is on record as 0. Further, the ERBB1/ERBB1 dimerization signal (6.25e-8 M) was 8.38 and 6.13 and 6.6 and 7.02 and 4.04 and 2.46. Moreover, the ERBB1/ERBB1 dimerization signal (1.25e-7 M) was 4.23 and 2.21 and 2.75 and 1.65 (2×) and 1.93. The ERBB1/ERBB1 dimerization signal (2.5e-7 M) is 5.73 and 2.08 and 2.79 and 4.91 and 2.29 and 1.1. For the same compound, under “5e-7 M”, the ERBB1/ERBB1 dimerization signal is 5.49 and 1.35 and 1.39 and 3.65 and 1.57 and 0.45. The ERBB1/ERBB1 dimerization signal (1e-6 M) was 6.08 and 3.69 and 2.97 and 5.23 and 2.17 and 1.53. Besides, the ERBB1/ERBB1 dimerization signal (2e-6 M) is 8.8 and 4.67 and 6.18 and 5.92 and 4.48 and 3.39. Also, for the setting “4e-6 M”, the ERBB1/ERBB1 dimerization signal was 15.68 and 13.03 and 10.62 and 10.47 and 7.22 and 7.25. In addition, the ERBB1/ERBB1 dimerization signal (8e-6 M) is 28.31 and 23.51 and 19.8 and 20.63 and 14.67 and 14.01. The ERBB1/ERBB1 dimerization signal (1.6e-5 M) was 47.08 and 37.9 and 37.11 and 43.5 and 44.59 and 32.06. Moreover, the ERBB1/ERBB1 dimerization signal (3.2e-5 M) is 67.98 and 64.53 and 62.88 and 78.66 and 59.73 and 53.27.
